Read-outs that look alike come from different tables or passages of the source.
System: LNCaP/AR cells
Assay: Inhibition of the proliferation of LNCap/AR cells (CCK-8)
Assay type: cell-based
Details: read-out: LNCap/AR IC50
Excerpt: 1. Biological Assay of the Inhibition on the Proliferation of LNCap/AR Cells
(1) Experimental materials and instruments: LNCaP/AR cell line and 22RV1 cell line (provided by Sichuan Kangcheng Biotechnology Co., Ltd.) Fetal bovine serum FBS (Gibco, Cat. No. 10099-141) 0.01M PBS (Biosharp, Cat. No. 162262) RIPM1640 medium (Hyclone, Cat. No. 308090.01) Penicillin-Streptomycin (Hyclone, Cat. No. SV30010) Cell counting kit-8 (Signalway Antibody, Cat. No. CP002) DMSO (Sigma, Cat. No. D5879) Centrifuge Tube, 15 ml (Excell Bio, Cat. No. CS015-0001) Cell Culture Dish, (Excell Bio, Cat. No. CS016-0128) 96-well cell culture plate (Corning, Cat. No. 3599) Microplate reader (Thermo Multiskan MK3 type)
(2) Experimental Methods:
a. Preparation of Buffer Cell culture medium: RIPM1640 medium, 10% FBS, 1% Pen Strep: PBS buffer: PBS powder was dissolved in 2 L of ultrapure water and sterilized. b. Experimental Procedures 1) LNCaP/AR cells were subcultured in cell culture media, and then the cells in good growth condition were seeded in a 96-well plate at 80 μL/well (1000 cells/well), and cultured overnight in a 37° C., 5% CO2 cell incubator. 2) The drug was prepared into a 10 mM stock solution with dimethyl sulfoxide (DMSO). Prior to use, the stock solution was diluted in a ratio of […] with DMSO, and then diluted at a 3-fold gradient to obtain 9 serial concentrations. Then, each concentration of compound was further diluted in a ratio of 1:200 with the culture medium (to ensure that the DMSO concentration in the culture system was 0.1%), and two wells were set for each concentration. 20 μL of the diluted compound solution was added to the well of the cell culture (with a final concentration of 10 μM, 3.3 μM, 1.1 μM . . . ), and then the plate was gently tapped to thoroughly mix. In addition, the experiment included 3 negative control wells only containing cells and 3 blank control wells only containing culture medium (6 wells were each added with DMSO diluted in a ratio of 1:200 with 20 μL of culture medium). c. Result Detection: 1) After culturing for 6 days, 10 μL of CCK-8 was added to each well, and the plate was further incubated for 1 h in a 37° C., 5% CO2 cell incubator. 2) The absorbance (OD value) was measured at 450 nm with a multifunctional microplate reader. 3) The data was analyzed by the Dose-response-inhibition equation in the software GraphPad Prism5, and the IC50 value was obtained. 2. Biological assay of the inhibition on the proliferation of other drug-resistant prostate cancer cells

[1] = 144 h, LNCaP/AR cells, 6 days culture, CCK-8

| SMILES | IC50 [1] | IC50 (LNCaP/AR, 144 h) | other results |
| --- | --- | --- | --- |
| CCN(c1ccc(C#N)c(Cl)c1)c1cc(-c2c(C)nn(CCCCCOCC(=O)N[C@H](C(=O)N3C[C@H](O)C[C@H]3C(=O)N[C@@H](C)c3ccc(-c4scnc4C)cc3)C(C)(C)C)c2C)ccc1C [Compound 1] |  | > 2000 nM |  |
| CCN(c1ccc(C#N)c(Cl)c1)c1cc(-c2nn(CCCCCOCC(=O)N[C@H](C(=O)N3C[C@H](O)C[C@H]3C(=O)N[C@@H](C)c3ccc(-c4scnc4C)cc3)C(C)(C)C)cc2C)ccc1C [Compound 2] |  | > 2000 nM |  |
| CC(=O)O[C@@H]1C[C@@H](C(=O)N[C@@H](C)c2ccc(-c3scnc3C)cc2)N(C(=O)[C@@H](NC(=O)COCCCCCN(c2ccc(C#N)c(Cl)c2)c2cc(-c3c(C)noc3C)ccc2C)C(C)(C)C)C1 [Compound 3] |  | 101 to 500 nM |  |
| CC(=O)O[C@@H]1C[C@@H](C(=O)N[C@@H](C)c2ccc(-c3scnc3C)cc2)N(C(=O)[C@@H](NC(=O)COCCCCCN(c2ccc(C#N)c(C(F)(F)F)c2)c2cc(-c3c(C)noc3C)ccc2C)C(C)(C)C)C1 [Compound 4] |  | > 2000 nM |  |
| CC(=O)O[C@@H]1C[C@@H](C(=O)N[C@@H](C)c2ccc(-c3scnc3C)cc2)N(C(=O)[C@@H](NC(=O)COCCCCCCN(c2ccc(-n3ccnc3)cc2)c2cc(-c3c(C)noc3C)ccc2C)C(C)(C)C)C1 [Compound 5, (3R,5S)-1-((S)-2-(2-((6-((4-(1H-imidazol-1-yl)phenyl)(5-(3,5-Dimethylisoxazol-4-yl)-2-methylphenyl)amino)n-hexyl)oxy)acetylamino)-3,3-dimethylbutyryl)-5-(((S)-1-(4-(4-methylthiazol-5-yl)phenyl)ethyl)formylamino)pyrrolidinyl-3-acetate] | > 2000 nM |  |  |
| Cc1ccc(-c2c(C)noc2C)cc1N(CCCCCCOCC(=O)N[C@H](C(=O)N1C[C@H](O)C[C@H]1C(=O)N[C@@H](C)c1ccc(-c2scnc2C)cc1)C(C)(C)C)c1ccc(-n2ccnc2)cc1 [Compound 6, (2S,4R)-1-((S)-2-(2-((6-((4-(1H-imidazol-1-yl)phenyl)(5-(3,5-Dimethylisoxazol-4-yl)-2-methylphenyl)amino)n-hexyl)oxy)acetylamino)-3,3-dimethylbutyryl)-4-hydroxy-N—((S)-1-(4-(4-methylthiazol-5-yl)phenyl)ethyl)pyrrolidinyl-2-formamide] | 501 to 2000 nM |  |  |
| CC(=O)O[C@@H]1C[C@@H](C(=O)N[C@@H](C)c2ccc(-c3scnc3C)cc2)N(C(=O)[C@@H](NC(=O)COCCCCCCCN(c2ccc(-n3ccnc3)cc2)c2cc(-c3c(C)noc3C)ccc2C)C(C)(C)C)C1 [Compound 7] | > 2000 nM |  |  |
| Cc1ccc(-c2c(C)noc2C)cc1N(CCCCCCCOCC(=O)N[C@H](C(=O)N1C[C@H](O)C[C@H]1C(=O)N[C@@H](C)c1ccc(-c2scnc2C)cc1)C(C)(C)C)c1ccc(-n2ccnc2)cc1 [Compound 8] | 501 to 2000 nM |  |  |
| CC(=O)O[C@@H]1C[C@@H](C(=O)N[C@@H](C)c2ccc(-c3scnc3C)cc2)N(C(=O)[C@@H](NC(=O)COCCCCCN(c2ccc(-n3ccnc3)c(Br)c2)c2cc(-c3c(C)noc3C)ccc2C)C(C)(C)C)C1 [Compound 9, (3R,5S)-1-((S)-2-(2-((5-((3-bromo-4-(1H-imidazol-1-yl)phenyl)(5-(3,5-dimethylisoxazol-4-yl)-2-methylphenyl)amino)n-pentyl)oxy)acetylamino)-3,3-dimethylbutyryl)-5-(((S)-1-(4-(4-methylthiazol-5-yl)phenyl)ethyl)formylamino)pyrrolidinyl-3-acetate] |  |  | IC50 (LNCaP/AR cells, 6 days culture, CCK-8): 501 to 2000 nM |
| CC(=O)O[C@@H]1C[C@@H](C(=O)N[C@@H](C)c2ccc(-c3scnc3C)cc2)N(C(=O)[C@@H](NC(=O)COCCCCCN(c2ccc(-n3ccnc3)c(Cl)c2)c2cc(-c3c(C)noc3C)ccc2C)C(C)(C)C)C1 [Compound 11, (3R,5S)-1-((S)-2-(2-((5-((3-chloro-4-(1H-imidazol-1-yl)phenyl)(5-(3,5-dimethylisoxazol-4-yl)-2-methylphenyl)amino)n-pentyl)oxy)acetylamino)-3,3-dimethylbutyryl)-5-(((S)-1-(4-(4-methylthiazol-5-yl)phenyl)ethyl)formylamino)pyrrolidinyl-3-acetate] | 501 to 2000 nM |  |  |
| CC(=O)O[C@@H]1C[C@@H](C(=O)N[C@@H](C)c2ccc(-c3scnc3C)cc2)N(C(=O)[C@@H](NC(=O)COCCCCCN(c2ccc(-n3ccnc3)c(F)c2)c2cc(-c3c(C)noc3C)ccc2C)C(C)(C)C)C1 [Compound 13, (3R,5S)-1-((S)-2-(2-((5-((3-fluoro-4-(1H-imidazol-1-yl)phenyl)(5-(3,5-dimethylisoxazol-4-yl)-2-methylphenyl)amino)n-pentyl)oxy)acetylamino)-3,3-dimethylbutyryl)-5-(((S)-1-(4-(4-methylthiazol-5-yl)phenyl)ethyl)formylamino)pyrrolidinyl-3-acetate] |  | > 2000 nM |  |
| CC(=O)O[C@@H]1C[C@@H](C(=O)N[C@@H](C)c2ccc(-c3scnc3C)cc2)N(C(=O)[C@@H](NC(=O)COCCCCCN(c2ccc(F)c(-n3ccnc3)c2)c2cc(-c3c(C)noc3C)ccc2C)C(C)(C)C)C1 [Compound 15] |  | > 2000 nM |  |
| CC(=O)O[C@@H]1C[C@@H](C(=O)N[C@@H](C)c2ccc(-c3scnc3C)cc2)N(C(=O)[C@@H](NC(=O)COCCCCCN(c2ccc(-n3ccnc3)cc2)c2cc3c(C)noc3cc2C)C(C)(C)C)C1 [Compound 17, (3R,5S)-1-((S)-2-(2-((5-((4-(1H-imidazol-1-yl)phenyl)(3,6-dimethylbenzo[d]isoxazol-5-yl)amino)pentyl)oxy)acetamido)-3,3-dimethylbutyryl)-5-((S)-1-(4-(4-methylthiazol-5-yl)phenyl)ethyl)carbamoyl)pyrrolidine-3-yl acetate] | > 2000 nM |  |  |
| CC(=O)O[C@@H]1C[C@@H](C(=O)N[C@@H](C)c2ccc(-c3scnc3C)cc2)N(C(=O)[C@@H](NC(=O)COCCCCCN(c2ccc(-n3ccnc3)cc2)c2cc3onc(C)c3cc2C)C(C)(C)C)C1 [Compound 18, (3R,5S)-1-((S)-2-(2-((5-((4-(1H-imidazol-1-yl)phenyl)(3,5-dimethylbenzo[d]isoxazol-6-yl)amino)pentyl)oxy)acetamido)-3,3-dimethylbutyryl)-5-((S)-1-(4-(4-methylthiazol-5-yl)phenyl)ethyl)carbamoyl)pyrrolidine-3-yl acetate] | > 2000 nM |  |  |

Further lines, with some results ahead:

| IC50 [1] | SMILES | IC50 (LNCaP/AR, 144 h) | other results |
| --- | --- | --- | --- |
| 101 to 500 nM | Cc1ccc(-c2c(C)noc2C)cc1N(CCCCCOCC(=O)N[C@H](C(=O)N1C[C@H](O)C[C@H]1C(=O)N[C@@H](C)c1ccc(-c2scnc2C)cc1)C(C)(C)C)c1ccc(-n2ccnc2)c(Cl)c1 [Compound 12, (2S,4R)-1-((S)-2-(2-((5-((3-chloro-4-(1H-imidazol-1-yl)phenyl)(5-(3,5-dimethylisoxazol-4-yl)-2-methylphenyl)amino)n-pentyl)oxy)acetylamino)-3,3-dimethylbutyryl)-4-hydroxy-N—((S)-1-(4-(4-methylthiazol-5-yl)phenyl)ethyl) pyrrolidinyl-2-formamide] |  |  |
| > 2000 nM | Cc1ccc(-c2c(C)noc2C)cc1N(CCCCCOCC(=O)N[C@H](C(=O)N1C[C@H](O)C[C@H]1C(=O)N[C@@H](C)c1ccc(-c2scnc2C)cc1)C(C)(C)C)c1ccc(-n2ccnc2)c(F)c1 [Compound 14, (2S,4R)-1-((S)-2-(2-((5-((3-fluoro-4-(1H-imidazol-1-yl)phenyl)(5-(3,5-dimethylisoxazol-4-yl)-2-methylphenyl)amino)n-pentyl)oxy)acetylamino)-3,3-dimethylbutyryl)-4-hydroxy-N—((S)-1-(4-(4-methylthiazol-5-yl)phenyl)ethyl)pyrrolidinyl-2-formamide] |  |  |
| > 2000 nM | Cc1ccc(-c2c(C)noc2C)cc1N(CCCCCOCC(=O)N[C@H](C(=O)N1C[C@H](O)C[C@H]1C(=O)N[C@@H](C)c1ccc(-c2scnc2C)cc1)C(C)(C)C)c1ccc(F)c(-n2ccnc2)c1 [Compound 16] |  |  |
| < 100 nM | Cc1ccc(-c2c(C)noc2C)cc1N(CCCCCOCC(=O)N[C@H](C(=O)N1C[C@H](O)C[C@H]1C(=O)N[C@@H](C)c1ccc(-c2scnc2C)cc1)C(C)(C)C)c1ccc(-n2ccnn2)c(Br)c1 [Compound 19] |  |  |

— patent publication US20220257774A1, “AROMATIC AMINE AR AHD BET TARGETING PROTEIN DEGRADATION CHIMERA COMPOUND AND USE” (HINOVA PHARMACEUTICALS INC., priority 2019, published 2022)
